Test [1] has as its target T1, FXR ligand binding domain (Homo sapiens, UniProt Q96RI1).
T1 construct: expressed in transfected cells; host or cells: HEK293 cells, transiently transfected with pCMV-BD-FXR-LBD, pFR-Luc and pRL-CMV
T1 sequence (Q96RI1 187-472 isoform Q96RI1-2): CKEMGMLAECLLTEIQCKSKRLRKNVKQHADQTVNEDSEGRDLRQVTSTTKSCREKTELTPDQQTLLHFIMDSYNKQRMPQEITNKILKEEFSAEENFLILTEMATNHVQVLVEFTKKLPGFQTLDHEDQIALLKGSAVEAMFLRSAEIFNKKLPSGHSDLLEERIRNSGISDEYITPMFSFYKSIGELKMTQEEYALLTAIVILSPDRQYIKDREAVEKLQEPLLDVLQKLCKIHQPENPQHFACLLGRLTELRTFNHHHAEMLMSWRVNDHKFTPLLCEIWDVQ
The experiment in a line: Mammalian One Hybrid (M1H) assay, Gal4 promoter driven transactivation in HEK293 cells. Format: cell-based. As to conditions: Gal4-FXR-LBD luciferase reporter, 16 h. On the procedure:
Mammalian One Hybrid (M1H) Assay
Determination of a ligand mediated Gal4 promoter driven transactivation to quantify ligand binding mediated activation of FXR was performed as follows: The cDNA part encoding the FXR ligand binding domain was cloned into vector pCMV-BD (Stratagene) as a fusion to the yeast GAL4 DNA binding domain under the control of the CMV promoter. The amino acid boundaries of the ligand binding domain were amino acids 187-472 of Database entry NM_005123 (RefSeq). The plasmid pFR-Luc (Stratagene) was used as the reporter plasmid, containing a synthetic promoter with five tandem repeats of the yeast GAL4 binding sites, driving the expression of the Photinus pyralis (American firefly) luciferase gene as the reporter gene. In order to improve experimental accuracy the plasmid pRL-CMV (Promega) was cotransfected. pRL-CMV contains the constitutive CMV promoter, controlling the expression of the Renilla reniformis luciferase. All Gal4 reporter gene assays were done in HEK293 cells (obtained from DSMZ, Braunschweig, Germany) grown in MEM with L-Glutamine and Earle's BSS supplemented with 10% fetal bovine serum, 0.1 mM nonessential amino acids, 1 mM sodium pyruvate, and 100 units Penicilin/[…] per mL at 37° C. in 5% CO2. Medium and supplements were obtained from Invitrogen. For the assay, […] cells were plated per well in 96 well plates in 100 μL per well MEM without Phenol Red and L-Glutamine and with Earle's BSS supplemented with 10% charcoal/dextran treated FBS (HyClone, South Logan, Utah), 0.1 mM nonessential amino acids, 2 mM glutamine, 1 mM sodium pyruvate, and 100 units Penicilin/[…] per mL, incubated at 37° C. in 5% CO2. The following day the cells were >90% confluence. Medium was removed and cells were transiently transfected using 20 μL per well of a OptiMEM—polyethylene-imine-based transfection-reagent (OptiMEM, Invitrogen; Polyethyleneimine, Aldrich Cat No. 40,827-7) including the three plasmids described above. MEM with the same composition as used for plating cells was added 2-4 h after addition of transfection mixture. Then compound stocks, prediluted in MEM were added (final vehicle concentration not exceeding 0.1%). Cells were incubated for additional 16 h before firefly and renilla luciferase activities were measured sequentially in the same cell extract using a Dual-Light-Luciferase-Assay system (Dyer et al., Anal. Biochem. 2000, 282, 158-161). All experiments were done in triplicates.
For orientation: In a reporter assay the amount or activity of a reporter protein is the signal.

The target in test [2] is T2, human FXR alpha ligand binding domain (Homo sapiens, UniProt Q96RI1).
T2 construct: made in house; host or cells: E. coli BL21(DE3), vector pDEST15
T2 sequence (Q96RI1 187-472 isoform Q96RI1-2): T1 sequence (Q96RI1 187-472 isoform Q96RI1-2)
The experiment in a line: FRET activity assay (ligand mediated cofactor peptide interaction, LANCE). As to conditions: GST-FXR-LBD / biotinylated SRC-1 peptide (676-700), read-out: F EC50. It is filed as biochemical. On the procedure:
Determination of a ligand mediated cofactor peptide interaction to quantify ligand binding to the nuclear receptor FXR was performed as follows: Preparation of human FXR alpha ligand binding domain: The human FXRalpha LBD was expressed in E. coli strain BL21(DE3) as an N-terminally GST tagged fusion protein. The DNA encoding the FXR ligand binding domain was cloned into vector pDEST15 (Invitrogen). Expression was under control of an IPTG inducible T7 promoter. The amino acid boundaries of the ligand binding domain were amino acids 187-472 of Database entry NM_005123 (RefSeq). Expression and purification of the FXR-LBD: An overnight preculture of a transformed E. coli strain was diluted 1:20 in LB-Ampicillin medium and grown at 30° C. to an optical density of OD600=0.4-0.6. Gene expression was then induced by addition of 0.5 mM IPTG. Cells were incubated an additional 6 h at 30° C., 180 rpm. Cells were collected by centrifugation (7000×g, 7 min, rt). Per liter of original cell culture, cells were resuspended in 10 mL lysis buffer (50 mM Glucose, 50 mM Tris pH 7.9, 1 mM EDTA and 4 mg/mL lysozyme) and left on ice for 30 min. Cells were then subjected to sonication and cell debris removed via centrifugation (22000×g, 30 min, 4° C.). Per 10 mL of supernatant 0.5 mL prewashed Glutathione 4B sepharose slurry (Qiagen) was added and the suspension kept slowly rotating for 1 h at 4° C. Glutathione 4B sepharose beads were pelleted by centrifugation (2000×g, 15 sec, 4° C.) and washed twice in wash buffer (25 mM Tris, 50 mM KCl, 4 mM MgCl2 and 1M NaCl). The pellet was resuspended in 3 mL elution buffer per liter of original culture (elution buffer: 20 mM Tris, 60 mM KCl, 5 mM MgCl2 and 80 mM glutathione added immediately prior to use as powder). The suspension was left rotating for 15 min at 4° C., the beads pelleted and eluted again with half the volume of elution buffer than the first time. The eluates were pooled and dialysed overnight in 20 mM Hepes buffer (pH 7.5) containing 60 mM KCl, 5 mM MgCl2 as well as 1 mM dithiothreitol and 10% (v/v) glycerol. The protein was analysed by SDS-Page.
The method measures the ability of putative ligands to modulate the interaction between the purified bacterial expressed FXR ligand binding domain (LBD) and a synthetic biotinylated peptide based on residues 676-700 of SRC-1 (LCD2, 676-700). The sequence of the peptide used was B—[…]—COOH where the N-terminus was biotinylated (B). The ligand binding domain (LBD) of FXR was expressed as fusion protein with GST in BL-21 cells using the vector pDEST15. Cells were lysed by sonication, and the fusion proteins purified over glutathione sepharose (Pharmacia) according to the manufacturers instructions. For screening of compounds for their influence on the FXR-peptide interaction, the Perkin Elmer LANCE technology was applied. This method relies on the binding dependent energy transfer from a donor to an acceptor fluorophor attached to the binding partner of interest. For ease of handling and reduction of background from compound fluorescence LANCE technology makes use of generic fluorophore labels and time resolved detection Assays were done in a final volume of 25 μL in a 384 well plate, in a Tris-based buffer (20 mM Tris-HCl pH 7.5; 60 mM KCl, 5 mM MgCl2; 35 ng/μL BSA), containing 20-60 ng/well recombinantly expressed FXR-LBD fused to GST, 200-600 nM N-terminally biotinylated peptide, representing SRC1 aminoacids 676-700, 200 ng/well Streptavidin-xIAPC conjugate (Prozyme) and 6-10 ng/well Eu W1024-antiGST (Perkin Elmer). DMSO content of the samples was kept at 1%. After generation of the assay mix and diluting the potentially FXR modulating ligands, the assay was equilibrated for 1 h in the dark at rt in FIA-plates black 384 well (Greiner). The LANCE signal was detected by a Perkin Elmer VICTOR2VTM Multilabel Counter. The results were visualized by plotting the ratio between the emitted light at 665 and 615 nm. […]

A word on the EC50: it is the concentration at which the effect is half-maximal. For `O=C(O)c1cc(F)c2nc([C@]3(O)CC[C@@H](OCc4c(-c5c(Cl)cncc5Cl)noc4C4CC4)CC3)sc2c1` [Example 11-34, 2-((1s,4s)-4-((5-Cyclopropyl-3-(3,5-dichloropyridin-4-yl)isoxazol-4-yl)methoxy)-1-hydroxycyclohexyl)-4-fluorobenzo[d]thiazole-6-carboxylic acid], the 50% effective concentration (EC50) in test [1] is 0.38 µM; in test [2], 0.055 µM.

For the molecule `O=C(O)c1ccc2nc([C@]3(O)CC[C@H](OCc4c(C5CCC(F)(F)CC5)noc4C4CC4)CC3)sc2c1` [Example 11-2, 2-((1r,4r)-4-((5-Cyclopropyl-3-(4,4-difluorocyclohexyl)isoxazol-4-yl)methoxy)-1-hydroxycyclohexyl)benzo[d]thiazole-6-carboxylic acid], the concentration for a half-maximal effect (EC50) in test [1] is > 3 µM; in test [2], 8.6 µM.

As for `CS(=O)(=O)NC(=O)c1cc(F)c2nc([C@]3(O)CC[C@@H](OCc4c(-c5c(Cl)cccc5Cl)noc4C4CC4)CC3)sc2c1` [Example 16, 2-((1s,4s)-4-((5-Cyclopropyl-3-(2,6-dichlorophenyl)isoxazol-4-yl)methoxy)-1-hydroxycyclohexyl)-4-fluoro-N-(methylsulfonyl)benzo[d]thiazole-6-carboxamide], the EC50 was 1.9 µM in test [1] and 0.022 µM in test [2].

On to `O=C(O)c1cc(F)c2nc([C@]3(O)[C@@H]4CC[C@H]3CC(OCc3c(-c5c(Cl)cccc5Cl)noc3C3CC3)(C(F)F)C4)sc2c1` (single isomer, unassigned) [Example 11-40], for which the figures for the EC50 in test [1] and in test [2] were 0.29 µM and 0.42 µM, respectively.

In the case of `O=C(O)c1ccc([C@]2(O)CC[C@@H](OCc3c(-c4c(Cl)cccc4Cl)noc3C3CC3)CC2)c(F)c1` [Example 11-5, 4-((1s,4s)-4-((5-Cyclopropyl-3-(2,6-dichlorophenyl)isoxazol-4-yl)methoxy)-1-hydroxycyclohexyl)-3-fluorobenzoic acid], the results for the EC50 in test [1] and in test [2] were 0.094 µM and 0.06 µM, respectively.

In the case of `O=C(O)c1cc(F)c2nc(C3(O)C[C@H]4CC(OCc5c(-c6c(Cl)cccc6Cl)noc5C5CC5)C[C@H]4C3)sc2c1` (stereo partly drawn) [Example 11-46, 2-((3aR,6aS)-5-((5-Cyclopropyl-3-(2,6-dichlorophenyl)isoxazol-4-yl)methoxy)-2-hydroxyoctahydropentalen-2-yl)-4-fluorobenzo[d]thiazole-6-carboxylic acid], the results for the concentration giving a half-maximal response (EC50) in test [1] and in test [2] were 0.18 µM and 0.044 µM, respectively.

On to `O=C(O)c1cc(F)c2nc([C@]3(O)CC[C@@H](OCc4c(-c5c(Cl)cccc5Cl)noc4C4CC4)CC3)sc2c1` [Example 11-31, 2-((1s,4s)-4-((5-cyclopropyl-3-(2,6-dichlorophenyl)isoxazol-4-yl)methoxy)-1-hydroxycyclohexyl)-4-fluorobenzo[d]thiazole-6-carboxylic acid], for which the EC50 was determined as 0.13 µM in test [1] and 0.05 µM in test [2].

With `O=C(O)c1ccc2nc([C@]3(O)CC[C@@H](OCc4c(-c5c(Cl)cncc5Cl)noc4C4CC4)CC3)sc2c1` [Example 11-16, 2-((1s,4s)-4-((5-Cyclopropyl-3-(3,5-dichloropyridin-4-yl)isoxazol-4-yl)methoxy)-1-hydroxycyclohexyl)benzo[d]thiazole-6-carboxylic acid], the figures for the EC50 in test [1] and in test [2] were 0.57 µM and 0.084 µM, respectively.

Turning to `O=C(O)c1ccc2nc([C@]3(O)CC[C@@H](OCc4c(C5CCC(F)(F)CC5)noc4C4CC4)CC3)sc2c1` [Example 11-1, 2-((1s,4s)-4-((5-Cyclopropyl-3-(4,4-difluorocyclohexyl)isoxazol-4-yl)methoxy)-1-hydroxycyclohexyl)benzo[d]thiazole-6-carboxylic acid], the EC50 in test [1] is > 3 µM; in test [2], 2.2 µM.

For the molecule `Cc1onc(-c2c(Cl)cccc2Cl)c1CO[C@@H]1C[C@H]2CC[C@@H](C1)[C@]2(O)c1nc2ccc(C(=O)O)cc2s1` [Example 11-37, 2-((1R,3s,5S,8r)-3-((3-(2,6-Dichlorophenyl)-5-methylisoxazol-4-yl)methoxy)-8-hydroxybicyclo[3.2.1]octan-8-yl)benzo[d]thiazole-6-carboxylic acid], the concentration giving a half-maximal response (EC50) in test [1] is 0.043 µM; in test [2], 0.0088 µM.

Take `O=C(O)c1ccc2nc([C@@]3(O)[C@@H]4CC5C[C@H]3C[C@](OCc3c(-c6c(Cl)cccc6Cl)noc3C3CC3)(C5)C4)sc2c1` [Example 11-35, 2-((1R,2r,3S,5s,7s)-5-((5-Cyclopropyl-3-(2,6-dichlorophenyl)isoxazol-4-yl)methoxy)-2-hydroxyadamantan-2-yl)benzo[d]thiazole-6-carboxylic acid]: the values for the concentration giving a half-maximal response (EC50) in test [1] and in test [2] were 0.0052 µM and 0.0096 µM, respectively.

On to `O=C(O)c1cc(F)c2nc(C3(O)C[C@H]4CC[C@@H](C3)C4OCc3c(-c4c(Cl)cccc4Cl)noc3C3CC3)sc2c1` (single isomer, unassigned) [Example 11-54], for which the EC50 in test [1] stood at 0.39 µM; in test [2], 0.81 µM.

(Values after patent publication US9751874B2, “Hydroxy containing FXR (NR1H4) modulating compounds” (Gilead Sciences, Inc., priority 2014, dated 2017).)
